Key:
[1] = tested on: Jun.EpoR.del3 (ZipEpoR.del3: cJunzip.hEpoRmut.del3, cJun SEQ ID NO: 9, hEpoRmut SEQ ID NO: 16; 3 amino acid TM domain deletion); experiment: Frequency of pSTAT5+ cells after ruxolitinib treatment, T cells expressing Jun.EpoR.del3 ZipR; type: cell-based; settings: role: inhibitor; STAT5 phosphorylation (pSTAT5+ cells), human T cells, 48-hour treatment
Source text: (§1) FIGS. 2A-2F show Jun leucine zipper-based homodimers activating STAT5 resulting in improved T cell viability, and that they are inhibited by ruxolitinib. (FIGS. 2A and 2B) pSTAT5 geometric mean fluorescence intensity (FIG. 2A) or percent positive (FIG. 2B) in Jun ZipR+ cells (N=4 biological replicates, One-way ANOVA, ** p<0.01, *** p<0.001, **** p<0.0001). (FIGS. 2C-2E) Frequency of pSTAT5+ cells following 48-hour treatment with indicated concentrations of ruxolitinib in vitro (N=3 biological replicates). (FIG. 2F) Frequency of dead cells (Annexin V+ Dead+), apoptotic cells (Annexin V+ Dead-), necrotic cells (Annexin V− Dead+), and live cells (Annexin V− Dead-) after 7 days of cytokine starvation without or with treatment of 5 M ruxolitinib in vitro (N=2 biological replicates, two-way ANOVA, **** p<0.0001 on Live cell population)
(§2) The following constructs were generated and tested: • i) Jun.IL-2Rβ chain constructs with 0 to 6 alanine insertions to interrogate all potential intracellular orientations; • ii) Jun.EpoR constructs with 0, 1, 3, or 5 amino acid TM domain deletions to interrogate receptors with 0, 100, 300, or 500 degrees of rotation; • iii) Jun. GHR; and • iv) Jun. 18B.MyD88 fused to EpoR or GHR (Jun.MyD88.EpoR or Jun.MyD88.GHR).
(§3) As a potential safety switch for the constitutively active homodimeric ZipRs, T cells expressing Jun.EpoR ZipRs or the Jun. […]

[2] = tested on: Jun.GHR (ZipGHR: cJunzip.hGHR, cJun SEQ ID NO: 9, hGHR SEQ ID NO: 20); experiment: Frequency of pSTAT5+ cells after ruxolitinib treatment, T cells expressing Jun.GHR ZipR; type: cell-based; settings: role: inhibitor; STAT5 phosphorylation (pSTAT5+ cells), human T cells, 48-hour treatment
Source text: as §1
(§4) As a potential safety switch for the constitutively active homodimeric ZipRs, T cells expressing Jun.EpoR ZipRs or the Jun. GHR ZipRs were treated with increasing concentrations of ruxolitinib, an FDA-approved JAK1/2 inhibitor. All ZipRs were inhibited by ruxolitinib (FIGS. 2C-2E) as judged by their ability to phosphorylate STAT5.
(§5) Generation of ZipR transduced T cells. […]

[3] = tested on: Jun.EpoR- or Jun.GHR ZipRs expressing human T cells; experiment: T cell survival after 7-day cytokine starvation with concurrent ruxolitinib treatment; type: cell-based; settings: role: inhibitor, 7 days without cytokines, printed as 5 M in FIG. 2F legend
Source text: as §1
In addition to activation of STAT5, the ability for Jun ZipRs to improve T cell function was determined. Jun.EpoR- or Jun.GHR ZipRs expressing human T cells were cultured without cytokines for 7 days in vitro before quantifying the frequency of live, dead, and dying cells. ZipR signaling allowed cells to survive 7-day cytokine starvation, which was abrogated by concurrent treatment with ruxolitinib (FIG. 2F). […]
Cytokine starvation. […] To quantify apoptosis, cells were labeled with annexin V (BD Biosciences) and eBioscience Fixable viability dye (Invitrogen).

[4] = tested on: Jun.EpoR.del1 (ZipEpoR.del1: cJunzip.hEpoRmut.del1, cJun SEQ ID NO: 9, hEpoRmut SEQ ID NO: 14; 1 amino acid TM domain deletion); experiment: Frequency of pSTAT5+ cells after ruxolitinib treatment, T cells expressing Jun.EpoR.del1 ZipR; type: cell-based; settings: role: inhibitor; STAT5 phosphorylation (pSTAT5+ cells), human T cells, 48-hour treatment
Source text: as §1, §2, §3

[5] = tested on: Jun.EpoR (ZipEpoR: cJunzip.hEpoRmut, cJun SEQ ID NO: 9, hEpoRmut SEQ ID NO: 10); experiment: Frequency of pSTAT5+ cells after ruxolitinib treatment, T cells expressing Jun.EpoR ZipR; type: cell-based; settings: role: inhibitor; STAT5 phosphorylation (pSTAT5+ cells), human T cells, 48-hour treatment
Source text: as §1, §4, §5

[6] = tested on: Jun.EpoR ZipRs or the Jun.GHR ZipRs; experiment: Ability of ZipRs to phosphorylate STAT5 under ruxolitinib treatment, T cells expressing Jun.EpoR ZipRs or Jun.GHR ZipR; type: cell-based, human; settings: role: inhibitor; increasing concentrations of ruxolitinib
Source text: as §1, §4, §5

[7] = tested on: Jun.EpoR.del5 (ZipEpoR.del5: cJunzip.hEpoRmut.del5, cJun SEQ ID NO: 9, hEpoRmut SEQ ID NO: 18; 5 amino acid TM domain deletion); experiment: Frequency of pSTAT5+ cells after ruxolitinib treatment, T cells expressing Jun.EpoR.del5 ZipR; type: cell-based; settings: role: inhibitor; STAT5 phosphorylation (pSTAT5+ cells), human T cells, 48-hour treatment
Source text: as §1, §2, §3

- EC50 [1]: 0.0572 µM
- EC50 [2]: 0.0063 µM
- EC50 [4]: 0.483 µM
- EC50 [5]: 0.668 µM
- EC50 [7]: 0.0942 µM
SMILES: N#CC[C@H](C1CCCC1)n1cc(-c2ncnc3[nH]ccc23)cn1 [Ruxolitinib, ruxolitinib]
- survival of 7-day cytokine starvation by ZipR signaling [3]: abrogated
- inhibition of ZipRs as judged by their ability to phosphorylate STAT5 [6]: inhibited

Source: patent US20260306631A1, “CHIMERIC RECEPTORS” (St. Jude Children's Research Hospital, Inc., priority 2023, published 2026)
